For 23 molecules, inhibition and EC50 results are on record in patent US20250042911A1, “NOVEL BENZOPYRAN DERIVATIVE AND USE THEREOF” (SPARK BIOPHARMA, INC, priority 2021, published 2025).

pEC50: −log10 of the molar value. Counter-ions that a name gives are not always drawn.

The test system of one assay is human M2 macrophages. Description: Inhibition of human M2 macrophage activity, hCCL22 in culture supernatant by ELISA. Type of assay: cell-based. Particulars: Macrophage, hCCL22 inhibitory activity at 10 μM, 72 hours. How it is done:
To obtain human M2 macrophages, human monocytes (THP-1 monocyte, CD4 expression) were stabilized in a 96-well plate for 24 hours and then incubated in culture media containing 100 ng/mL phorbal 12-myristate-13-acetate (PMA; Sigma, P8139) for 24 hours to differentiate into M0 macrophages (macrophage-like phenotype). It was confirmed that differentiated M0 macrophages had reduced CD4 expression and expressed CD11b. M0 macrophages in the plate well were washed once with culture media and incubated in culture media containing 25 ng/mL hIL-4 (Peprotech, 200-04-50) and 25 ng/mL hIL-13 (Peprotech, 200-13-50) for 72 hours to differentiate into M2-like macrophages. Test compounds were diluted by concentration in M2 differentiation media and treated simultaneously during a differentiation period of 72 hours. The inhibitory effect of the test compounds on M2 macrophages was determined by measuring hCCL22 in the medium culture supernatant cultured for 72 hours using an ELISA assay (R&D system, DMD00). The results of the activity measurements are represented in Table 3 (EC50), Table 4 ([…] inhibitory activity at 5 μM) and Table 5 (hCCL22 inhibitory activity at 10 μM).
(In general: In an ELISA, binding on a coated surface is turned into a signal by an enzyme label.)
A word on the inhibition: it is how much of the control response was suppressed. A higher inhibition goes with strong suppression. Take `CNc1ccc2c(c1)OC(C)(C)C1=CCn3c(=O)n(-c4ccc(C(C)=O)cc4)c(=O)n3C12` (stereo not shown) [Example 32, 2-(4-acetylphenyl)-7,7-dimethyl-10-(methylamino)-5,12b-dihydro-1H,7H-chromeno[4,3-c][1,2,4]triazolo[1,2-a]pyridazine-1,3(2H)-dione]: the inhibition at 10 µM amounted to 84.4%.
Still for that read-out and setting: for `CC(=O)c1ccc(-n2c(=O)n3n(c2=O)C2C(=CC3)C(C)(C)Oc3c2cc(Cl)c(O)c3Cl)cc1` (stereo not shown) [Example 11, 2-(4-acetylphenyl)-9,11-dichloro-10-hydroxy-7,7-dimethyl-5,12b-dihydro-1H,7H-chromeno[4,3-c][1,2,4]triazolo[1,2-a]pyridazine-1,3(2H)-dione] the value was 78.1%.
Consider `CC(=O)c1ccc(-n2c(=O)n3n(c2=O)C2C(=CC3)C(C)(C)Oc3cc(N4CCN(C(C)=O)CC4)ccc32)cc1` (stereo not shown) [Example 19, 2-(4-acetylphenyl)-10-(4-acetylpiperazin-1-yl)-7,7-dimethyl-5,12b-dihydro-1H,7H-chromeno[4,3-c][1,2,4]triazolo[1,2-a]pyridazine-1,3(2H)-dione], for which testing at 10 µM gave an inhibition of 18.8%.
In turn, `CC(=O)c1ccc(-n2c(=O)n3n(c2=O)C2C(=CC3)C(C)(C)Oc3cc(NS(N)(=O)=O)ccc32)cc1` (stereo not shown) [Example 9, N-(2-(4-acetylphenyl)-7,7-dimethyl-1,3-dioxo-2,3,5,12b-tetrahydro-1H,7H-chromeno[4,3-c][1,2,4]triazolo[1,2-a]pyridazin-10-yl)sulfuric diamide] yielded an inhibition at 10 µM of 74.8%.
On to `CC(=O)c1ccc(-n2c(=O)n3n(c2=O)C2C(=CC3)C(C)(C)Oc3cc(N)ccc32)cc1` (stereo not shown) [Example 7, 2-(4-acetylphenyl)-10-amino-7,7-dimethyl-5,12b-dihydro-1H,7H-chromeno[4,3-c][1,2,4]triazolo[1,2-a]pyridazine-1,3(2H)-dione], for which testing at 10 µM gave an inhibition of 83.4%.
The same measure, in the same setting: the same measure for `CC(=O)c1ccc(-n2c(=O)n3n(c2=O)C2C(=CC3)C(C)(C)Oc3c2cc(Br)c(O)c3Br)cc1` (stereo not shown) [Example 10, 2-(4-acetylphenyl)-9,11-dibromo-10-hydroxy-7,7-dimethyl-5,12b-dihydro-1H,7H-chromeno[4,3-c][1,2,4]triazolo[1,2-a]pyridazine-1,3(2H)-dione]: 98.4%.

Still in this assay, the particulars now being: Macrophage, hML22 inhibitory activity at 5 μM, 72 hours.
For `CC(=O)c1ccc(-n2c(=O)n3n(c2=O)C2C(=CC3)C(C)(C)Oc3c2cc(F)c(O)c3F)cc1` (stereo not shown) [Example 27, 2-(4-acetylphenyl)-9,11-difluoro-10-hydroxy-7,7-dimethyl-5,12b-dihydro-1H,7H-chromeno[4,3-c][1,2,4]triazolo[1,2-a]pyridazine-1,3(2H)-dione], the inhibition at 5 µM was found to be 29.9%.

Staying with this assay, now noted: hCCL22 secretion, THP-1 derived M2-like macrophages, compound present during 72 hours of differentiation.
What is called pEC50 is the negative decadic logarithm of the EC50, by convention in mol/L. Low readings indicate a large EC50, high ones a small EC50. In turn, `CNc1ccc2c(c1)OC(C)(C)C1=CCn3c(=O)n(-c4ccc(C(C)=O)cc4)c(=O)n3C12` (stereo not shown) [Example 32, 2-(4-acetylphenyl)-7,7-dimethyl-10-(methylamino)-5,12b-dihydro-1H,7H-chromeno[4,3-c][1,2,4]triazolo[1,2-a]pyridazine-1,3(2H)-dione] had a pEC50 of 5.21.
`CNc1c(Cl)cc2c(c1Cl)OC(C)(C)C1=CCn3c(=O)n(-c4ccc(C(C)=O)cc4)c(=O)n3C12` (stereo not shown) [Example 36, 2-(4-acetylphenyl)-9,11-dichloro-7,7-dimethyl-10-(methylamino)-5,12b-dihydro-1H,7H-chromeno[4,3-c][1,2,4]triazolo[1,2-a]pyridazine-1,3(2H)-dione] gave a pEC50 of 4.97.
For the molecule `CC1(C)Oc2cc(OP(=O)(O)O)ccc2C2C1=CCn1c(=O)n(-c3ccc(C(C)(C)C)cc3)c(=O)n12` (stereo not shown) [Example 144, 2-(4-(tert-butyl)phenyl)-7,7-dimethyl-1,3-dioxo-2,3,5,12b-tetrahydro-1H,7H-chromeno[4,3-c][1,2,4]triazolo[1,2-a]pyridazin-10-yl dihydrogen phosphate], the pEC50 is 5.27.
Molecule `CC(=O)c1ccc(-n2c(=O)n3n(c2=O)C2C(=CC3)C(C)(C)Oc3cc(-c4ccncc4)ccc32)cc1` (stereo not shown) [Example 43, 2-(4-acetylphenyl)-7,7-dimethyl-10-(pyridin-4-yl)-5,12b-dihydro-1H,7H-chromeno[4,3-c][1,2,4]triazolo[1,2-a]pyridazine-1,3(2H)-dione] gave a pEC50 of 4.72. This pEC50 is 0.55 log units lower than that of the molecule before.
In the case of `CC(=O)c1ccc(-n2c(=O)n3n(c2=O)C2C(=CC3)C(C)(C)Oc3cc(OC(=O)C(C)(C)C)ccc32)cc1` (stereo not shown) [Example 58, 2-(4-acetylphenyl)-7,7-dimethyl-1,3-dioxo-2,3,5,12b-tetrahydro-1H,7H-chromeno[4,3-c][1,2,4]triazolo[1,2-a]pyridazin-10-yl pivalate], the negative-log EC50 (pEC50) is 4.23.
Still for that read-out and setting: the same measure for `CC(=O)c1ccc(-n2c(=O)n3n(c2=O)C2C(=CC3)C(C)(C)Oc3cc(OC(=O)N4CCN(C(=O)CN(C)C)CC4)ccc32)cc1` (stereo not shown) [Example 99, 2-(4-acetylphenyl)-7,7-dimethyl-1,3-dioxo-2,3,5,12b-tetrahydro-1H,7H-chromeno[4,3-c][1,2,4]triazolo[1,2-a]pyridazin-10-yl 4-(dimethylglycyl)piperazine-1-carboxylate hydrochloride]: 4.49.
For the molecule `CN(C)C(=O)Oc1ccc2c(c1)OC(C)(C)C1=CCn3c(=O)n(-c4ccc(F)cc4)c(=O)n3C12` (stereo not shown) [Example 146, 2-(4-fluorophenyl)-7,7-dimethyl-1,3-dioxo-2,3,5,12b-tetrahydro-1H,7H-chromeno[4,3-c][1,2,4]triazolo[1,2-a]pyridazin-10-yl dimethylcarbamate], the pEC50 is less than 4.10.
`CCn1nc(C)c(-c2ccc3c(c2)OC(C)(C)C2=CCn4c(=O)n(-c5ccc(C(C)=O)cc5)c(=O)n4C23)c1C` (stereo not shown) [Example 40, 2-(4-acetylphenyl)-10-(1-ethyl-3,5-dimethyl-1H-pyrazol-4-yl)-7,7-dimethyl-5,12b-dihydro-1H,7H-chromeno[4,3-c][1,2,4]triazolo[1,2-a]pyridazine-1,3(2H)-dione] gave a pEC50 of 4.27.
In turn, `CC(=O)c1ccc(-n2c(=O)n3n(c2=O)C2C(=CC3)C(C)(C)Oc3cc(-c4cccnc4)ccc32)cc1` (stereo not shown) [Example 42, 2-(4-acetylphenyl)-7,7-dimethyl-10-(pyridin-3-yl)-5,12b-dihydro-1H,7H-chromeno[4,3-c][1,2,4]triazolo[1,2-a]pyridazine-1,3(2H)-dione] gave a pEC50 of 4.51.
Molecule `CC(=O)c1ccc(-n2c(=O)n3n(c2=O)C2C(=CC3)C(C)(C)Oc3cc(OC(=O)N4C(C)CNCC4C)ccc32)cc1` (stereo not shown) [Example 100, 2-(4-acetylphenyl)-7,7-dimethyl-1,3-dioxo-2,3,5,12b-tetrahydro-1H,7H-chromeno[4,3-c][1,2,4]triazolo[1,2-a]pyridazin-10-yl 2,6-dimethylpiperazine-1-carboxylate hydrochloride] gave a pEC50 of 4.80.
On the same count and under the same terms, the same measure for `CC(=O)c1ccc(-n2c(=O)n3n(c2=O)C2C(=CC3)C(C)(C)Oc3c2cc(Cl)c(NC(C)C)c3Cl)cc1` (stereo not shown) [Example 37, 2-(4-acetylphenyl)-9,11-dichloro-10-(isopropylamino)-7,7-dimethyl-5,12b-dihydro-1H,7H-chromeno[4,3-c][1,2,4]triazolo[1,2-a]pyridazine-1,3(2H)-dione]: 4.83; for `CC(=O)c1ccc(-n2c(=O)n3n(c2=O)C2C(=CC3)C(C)(C)Oc3cc(N4CCN(C)CC4)ccc32)cc1` (stereo not shown) [Example 51, 2-(4-acetylphenyl)-7,7-dimethyl-10-(4-methylpiperazin-1-yl)-5,12b-dihydro-1H,7H-chromeno[4,3-c][1,2,4]triazolo[1,2-a]pyridazine-1,3(2H)-dione]: 4.47; for `CC(=O)c1ccc(-n2c(=O)n3n(c2=O)C2C(=CC3)C(C)(C)Oc3cc(OC(=O)N4CCN(C(=O)CN(C)C)CC4(C)C)ccc32)cc1` (stereo not shown) [Example 119, 2-(4-acetylphenyl)-7,7-dimethyl-1,3-dioxo-2,3,5,12b-tetrahydro-1H,7H-chromeno[4,3-c][1,2,4]triazolo[1,2-a]pyridazin-10-yl 4-(dimethylglycyl)-2,2-dimethylpiperazine-1-carboxylate hydrochloride]: 5.02.
On the same count and under the same terms, for `CC1(C)Oc2cc(OP(=O)(O)O)ccc2C2C1=CCn1c(=O)n(-c3ccc(C(F)(F)F)cc3)c(=O)n12` (stereo not shown) [Example 142, 7,7-dimethyl-1,3-dioxo-2-(4-(trifluoromethyl)phenyl)-2,3,5,12b-tetrahydro-1H,7H-chromeno[4,3-c][1,2,4]triazolo[1,2-a]pyridazin-10-yl dihydrogen phosphate] the value was 5.20; for `CC(=O)c1ccc(-n2c(=O)n3n(c2=O)C2C(=CC3)C(C)(C)Oc3cc(OC(=O)N4CCNCC4)ccc32)cc1` (stereo not shown) [Example 67, 2-(4-acetylphenyl)-7,7-dimethyl-1,3-dioxo-2,3,5,12b-tetrahydro-1H,7H-chromeno[4,3-c][1,2,4]triazolo[1,2-a]pyridazin-10-yl piperazine-1-carboxylate hydrochloride], 4.76.
The same measure, in the same setting: the same measure for `CC(=O)c1ccc(-n2c(=O)n3n(c2=O)C2C(=CC3)C(C)(C)Oc3cc(-c4nc(C)sc4C)ccc32)cc1` (stereo not shown) [Example 39, 2-(4-acetylphenyl)-10-(2,5-dimethylthiazol-4-yl)-7,7-dimethyl-5,12b-dihydro-1H,7H-chromeno[4,3-c][1,2,4]triazolo[1,2-a]pyridazine-1,3(2H)-dione]: 4.14.
Molecule `CC(=O)c1ccc(-n2c(=O)n3n(c2=O)C2C(=CC3)C(C)(C)Oc3cc(N)ccc32)cc1` (stereo not shown) [Example 7, 2-(4-acetylphenyl)-10-amino-7,7-dimethyl-5,12b-dihydro-1H,7H-chromeno[4,3-c][1,2,4]triazolo[1,2-a]pyridazine-1,3(2H)-dione] had a pEC50 of 5.35.
Molecule `CC1(C)Oc2cc(O)ccc2C2C1=CCn1c(=O)n(-c3ccc(C(=O)N4CCOCC4)cc3)c(=O)n12` (stereo not shown) [Example 53, 10-hydroxy-7,7-dimethyl-2-(4-(morpholine-4-carbonyl)phenyl)-5,12b-dihydro-1H,7H-chromeno[4,3-c][1,2,4]triazolo[1,2-a]pyridazine-1,3(2H)-dione] had a negative-log EC50 (pEC50) of 5.35.
